Measurements as given in a compilation of properties of binary mixtures (doi:10.1007/s10953-022-01154-2).

Assay: xn = mol fraction of the nth substance listed
Settings: 101.3 kPa, x2 = 0

SMILES: CC1COC(=O)O1 (stereo not drawn) + CC[n+]1ccn(C)c1.N#C[S-]
- viscosity (298.15 K): 2.496 mPa·s
- viscosity (303.15 K): 2.164 mPa·s
- viscosity (313.15 K): 1.731 mPa·s
- viscosity (318.15 K): 1.586 mPa·s
- viscosity (323.15 K): 1.466 mPa·s
- viscosity (328.15 K): 1.373 mPa·s
- viscosity (338.18 K): 1.223 mPa·s
- viscosity (343.15 K): 1.173 mPa·s
